Earlier results as cited in paper PMC3401542 (Bioorganic & medicinal chemistry, 2012).

Test system: N1 NAs
Conditions: read-out: inhibition (IC50) of N1 NAs; range over N1 NAs; ref [28]; cited from earlier work

SMILES: CCC(CC)O[C@@H]1C=C(C(=O)O)C[C@H](N)[C@H]1NC(C)=O [Compound 1c, oseltamivir carboxylate]
- IC50: 0.3 to 0.8 nM
